Legend:
Zucker Fatty (ZF) rats [1] = assay: Insulin tolerance test (ITT); type: in vivo, rat
Experimental: On another day of the fourth week, the insulin tolerance test (ITT) was conducted in order to examine the degree of improvement of the general insulin resistance. Commercially available insulin preparation (NOVORIN R, NOVO) diluted to 0.5 U/mL with a normal saline solution was subcutaneously injected to the back of ZF rats fasted overnight to become 0.5 U/kg. Their blood was collected through the caudal vein 15, 30, 60, 120 and 180 minutes after the administration to measure their blood glucose. The blood glucose was measured in accordance with the routine method.
In response to the above results, ITT was conducted in order to more precisely quantify the degree of improvement of the general insulin sensitivity. […] However, the blood glucose lowered by about 50% of the level before the administration in 60 minutes after the administration of insulin due to the treatment by mitiglinide.

Zucker Fatty (ZF) rats [2] = assay: Circadian changes of blood glucose and insulin under restricted feeding after four weeks of treatment; type: in vivo, rat
Excerpt: The effectiveness of mitiglinide was examined by using Zucker Fatty (ZF) rats, which have the feature of obesity and insulin resistance. It is known that though ZF rats have hyperinsulinemia and impaired glucose tolerance, their fasting blood glucose is within a normal range and, therefore, their pathology is similar to IGT in human being (Br J Pharmacol 125, 1708-14, 1998).
Male Zucker Fatty rats of 6 weeks old were introduced and acclimatized to the restricted feeding of one hour each (9:00 to 10:00 and 15:00 to 16:00) twice per a day. After acclimatization for one week, the rats were randomly divided into two groups, and drugs were administered to them for four weeks. As the drugs, mitiglinide suspended in 0.5% methylcellulose was forcibly orally administered to one group to become a dose of 3 mg/kg, and only 0.5% methylcellulose solution that is a dose vehicle was forcibly orally administered to the other group just before each meal twice per a day. The circadian changes of their blood glucose and insulin that occurred under the restricted feeding were measured upon starting the administration and in the fourth week after its start. The drugs were not administered on the measurement day, and their blood was collected through the caudal vein before morning feeding (9:00), one hour after the feeding (10:00), two hours after the feeding (11:00), before afternoon feeding (15:00), one hour after the feeding (16:00), and two hours after the feeding (17:00). Then, their blood glucose and insulin were measured in accordance with the routine method.

[3] = feeding 9:00 to 10:00 and 15:00 to 16:00, fourth week, 3 mg/kg
[4] = male ZF rats, 3 mg/kg orally just before each meal twice per day for four weeks, measured in fourth week, no drug on measurement day

**Q.** What does the source list for `O=C(O)[C@H](CC(=O)N1C[C@H]2CCCC[C@H]2C1)Cc1ccccc1` [Mitiglinide, (2S)-2-benzyl-4-[(3aR, 7aS) -octahydro-2H-isoindole-2-yl]-4-oxobutanoic acid]?
**A.** Sum of blood glucose (Zucker Fatty (ZF) rats [1]; ITT in fourth week, insulin 0.5 U/kg s.c., ZF rats fasted overnight, blood 15-180 min after insulin): 243 ± 7 mg·h/dL; Blood glucose lowering relative to the level before the administration of insulin (Zucker Fatty (ZF) rats [1]; ITT, 60 minutes after insulin 0.5 U/kg s.c., FIG. 3): about 50%; Circadian changes of the blood glucose (FIG. 1) (Zucker Fatty (ZF) rats [2]; [3]): no change; Insulin level in the blood plasma (FIG. 2) (Zucker Fatty (ZF) rats [2]; [3]): decrease of the insulin level was clearly seen; Sum of the circadian changes of blood glucose (Zucker Fatty (ZF) rats [2]; [4]): 1050 ± 20 mg·h/dL; Sum of the circadian changes of insulin (Zucker Fatty (ZF) rats [2]; [4]): 224 ± 11 ng·h/mL
